≈ marks a conversion by molar mass, not a printed value. Counter-ions that a name gives are not always drawn. Like-named read-outs stand apart in the source and are kept apart here.
Experiments:
Type in all cases: cell-based
[1] = tested on: Aspergillus flavus AFL1 (ATCC MYA-3631); assay: Fungal MIC Protocol, Aspergillus flavus; details: Aspergillus flavus, read-out: MIC Aspergillus flavus 3631
Method: (§1) Fungal MIC Protocol: RPMI/MOPS media (Roswell Park Memorial Institute/3-morpholinopropane-1-sulfonic acid media) is prepared by dissolving 8.4 grams RPMI […] (Sigma cat #R1383), 34.52 grams MOPS buffer (Sigma cat #M3.183) and 2 […] glucose in 900 mL deionized water. The pH is adjusted to 7.0 with NaOH and filter sterilized. 0.1 mL, of a stock spore suspension (or loop from frozen stock) is inoculated to a 75 mL tissue culture flask (Falcon cat #353136) containing 50 mL of Potato Dextrose Agar (PDA, 24 grams PD broth (Fisher cat #DF 0549179), 20 grams agar (Fisher cat #BP 1423500) per liter water). Aspergillus and Fusarium strains are grown at 35° C. and Mucor strains are grown at room temperature for 3-5 days. Spores are harvested by flooding the flask with 5 mL phosphate buffered saline (PBS) pH 7.4+0.1% Tween-20 and several glass beads (Fisher cat #S800243) are added to aid in agitation. The supernatant is removed and the OD530 of a 1:100 dilution is measured. Spores are diluted in RPMI/MOPS to a final OD530 of 0.002 for Aspergillus and an OD530 of 0.005 for Fusarium and Mucor. The final concentration of spores is approximately 2×10^4 cfu/mL. Test compound(s) are diluted to 200 ug/mL in RPMI/MOPS ([…]). Ten (10) serial dilutions are prepared with RPMI/MOPS in a 96-well round bottom plate (Fisher cat #353136). For Mucor strains a sterile flat-bottom 96-well plate is used. 50 μl of compound dilutions in duplicate are added to a sterile 96-well round bottom plate. 50 ul of diluted spores are added to the compound-containing plates. Control wells include 1) compound but no cells and 2) spores but no compound. Mix the plates gently by hand, place in ziplock bags and
(§2) incubate at 35° C. for 48 hours. […]

[2] = tested on: Aspergillus fumigatus T33439 (ATCC MYA-3626); assay: Fungal MIC Protocol, Aspergillus fumigatus; details: Aspergillus fumigatus, read-out: MIC Aspergillus fumigatus 3626
Method: as §1, §2

[3] = tested on: Fusarium falciforme FS1 (ATCC MYA-3636); assay: Fungal MIC Protocol, Fusarium falciforme; details: Fusarium falciforme, read-out: MIC Fusarium falciforme 3636
Method: as §1, §2

[4] = tested on: Fusarium solani (ATCC 58877); assay: Fungal MIC Protocol, Fusarium solani; details: Fusarium solani, read-out: MIC Fusarium solani 58877
Method: as §1, §2

[5] = tested on: Mucor circinelloides 1463(62) (ATCC 26759); assay: Fungal MIC Protocol, Mucor circinelloides (MIC-50); details: Mucor circinelloides, read-out: MIC-50 Mucorales circinelloides 26579
Method: as §1
(§3) incubate at 35° C. for 48 hours. Score the MIC visually (lowest concentration of compound showing >50% growth inhibition) using an inverted mirror.

[6] = tested on: Mucor ramosissimus 057718 (ATCC 90286); assay: Fungal MIC Protocol, Mucor ramosissimus (MIC-50); details: Mucor ramosissimus, read-out: MIC-50 Mucorales ramosissimus 90286
Method: as §1, §3

[7] = 100% growth inhibition at 48 hours
[8] = ATCC58877, 100% growth inhibition at 48 hours
[9] = ATCC26759, 50% growth inhibition at 48 hours
[10] = ATCC90286, 50% growth inhibition at 48 hours

MIC [1, 7] [µg/mL] | MIC [2, 7] [µg/mL] | MIC [3, 7] [µg/mL] | MIC [4, 8] [µg/mL] | MIC50 [5, 9] [µg/mL] | MIC50 [6, 10] [µg/mL] | Structure (SMILES) | MIC ([1]; 48 h) [µg/mL] | MIC ([2]; 48 h) [µg/mL] | MIC ([3]; 48 h) [µg/mL] | MIC ([4]; ATCC58877, 48 h) [µg/mL] | MIC50 ([5]; ATCC26759, 48 h) [µg/mL] | MIC50 ([6]; ATCC90286, 48 h) [µg/mL]
0.39 (≈ 0.768 µM) | < 0.1 | < 0.1 | 0.2 (≈ 0.394 µM) | 0.39 (≈ 0.768 µM) | 1.56 (≈ 3.07 µM) | N=C(N)N1CC=C(c2ccc(-c3nnc(-c4ccc(C5=CCN(C(=N)N)CC5)cc4)n3C3CC3)cc2)CC1 [Example 4, 4,4′-(4,4′-(4-Cyclopropyl-4H-1,2,4-triazole-3,5-diyl)bis(4,1-phenylene)) bis(5,6-dihydropyridine-1(2H)-carboximidamide)] |  |  |  |  |  | 
1.56 (≈ 2.8 µM) | 0.39 (≈ 0.699 µM) | < 0.1 | 0.39 (≈ 0.699 µM) | 1.56 (≈ 2.8 µM) | 6.25 (≈ 11.2 µM) | N=C(N)N1CC=C(c2ccc(-c3nnc(-c4ccc(C5=CCN(C(=N)N)CC5)cc4)n3Cc3ccccc3)cc2)CC1 [Example 5, 4,4′-(4,4′-(4-Benzyl-4H-1,2,4-triazole-3,5-diyl)bis(4,1-phenylene))bis(5,6-dihydropyridine-1(2H)-carboximidamide)] |  |  |  |  |  | 
0.78 (≈ 1.31 µM) | 0.39 (≈ 0.657 µM) | < 0.1 | 0.39 (≈ 0.657 µM) | 0.78 (≈ 1.31 µM) | 0.78 (≈ 1.31 µM) | N=C(N)N1CC=C(c2ccc(-c3nnc(-c4ccc(C5=CCN(C(=N)N)CC5)cc4F)n3Cc3ccccc3)c(F)c2)CC1 [Example 18] |  |  |  |  |  | 
12.5 (≈ 21.4 µM) | 100 (≈ 171 µM) |  |  | 12.5 (≈ 21.4 µM) | 100 (≈ 171 µM) | CC(C)Nc1cc(C2=CCN(C(=N)N)CC2)ccc1-c1nnc(-c2ccc(C3=CCN(C(=N)N)CC3)cc2F)n1C(C)C [Example 26, 4-(4-(5-(4-(1-Carbamimidoyl-1,2,3,6-tetrahydropyridin-4-yl)-2-(isopropylamino)phenyl)-4-isopropyl-4H-1,2,4-triazol-3-yl)-3-fluorophenyl)-5,6-dihydro pyridine-1(2H)-carboximidamide] |  |  |  |  |  | 
< 0.1 | < 0.1 | < 0.1 | < 0.1 | > 100 | > 100 | Cn1c(-c2ccc(C3=CCN(C(=N)N)C3)cc2F)nnc1-c1ccc(C2=CCN(C(=N)N)C2)cc1F [Example 28, 3,3′-(4,4′-(4-Methyl-4H-1,2,4-triazole-3,5-diyl)bis(3-fluoro-4,1-phenylene)) bis(2,5-dihydro-1H-pyrrole-1-carboximidamide)] |  |  |  |  |  | 
6.25 (≈ 11.5 µM) | 6.25 (≈ 11.5 µM) | 1.56 (≈ 2.86 µM) | 1.56 (≈ 2.86 µM) | 6.25 (≈ 11.5 µM) | 50 (≈ 91.6 µM) | Cn1c(-c2ccc(C3=CCC(NC(=N)N)CC3)cc2F)nnc1-c1ccc(C2=CCC(NC(=N)N)CC2)cc1F (stereo not shown) [Example 40, 1-[4-(4-{5-[4-(4-Carbamimidamidocyclohex-1-en-1-yl)-2-fluorophenyl]-4-methyl-4H-1,2,4-triazol-3-yl}-3-fluorophenyl)cyclohex-3-en-1-yl]guanidine] |  |  |  |  |  | 
0.78 | 0.39 | 0.2 | 0.1 | 6.25 | 12.5 | CN(C)CCn1c(-c2ccc(C3=CCN(C(=N)N)CC3)cc2F)nnc1-c1ccc(C2=CCN(C(=N)N)CC2)cc1F.Cl [Example 72, 4-(4-{5-[4-(1-carbamimidoyl-1,2,3,6-tetrahydropyridin-4-yl)-2-fluorophenyl]-4-[2-(dimethylamino)ethyl]-4H-1,2,4-triazol-3-yl}-3-fluorophenyl)-1,2,3,6-tetrahydropyridine-1-carboximidamide hydrochloride] |  |  |  |  |  | 

The next lines start with the compound.

Structure (SMILES) | MIC [1, 7] [µg/mL] | MIC [2, 7] [µg/mL] | MIC [3, 7] [µg/mL] | MIC [4, 8] [µg/mL] | MIC50 [5, 9] [µg/mL] | MIC50 [6, 10] [µg/mL] | MIC ([1]; 48 h) [µg/mL] | MIC ([2]; 48 h) [µg/mL] | MIC ([3]; 48 h) [µg/mL] | MIC ([4]; ATCC58877, 48 h) [µg/mL] | MIC50 ([5]; ATCC26759, 48 h) [µg/mL] | MIC50 ([6]; ATCC90286, 48 h) [µg/mL]
CC(O)Cn1c(-c2ccc(C3=CCN(C(=N)N)CC3)cc2F)nnc1-c1ccc(C2=CCN(C(=N)N)CC2)cc1F (stereo not shown) [Example 66, 4-(4-{5-[4-(1-carbamimidoyl-1,2,3,6-tetrahydropyridine-4-yl)-2-fluorophenyl]-4-(2-hydroxypropyl)-4H-1,2,4-triazol-3-yl}-3-fluorophenyl)-1,2,3,6-tetrahydropyridine-1-carboximidamide trifluoroacetate] |  |  |  |  |  |  | 0.39 | 0.2 | 0.1 | 0.2 | 1.56 | 6.25
N=C(N)N1CC=C(c2ccc(-c3nnc(-c4ccc(C5=CCN(C(=N)N)CC5)cc4F)n3C(CO)CO)c(F)c2)CC1 [Example 71, 4-(4-{5-[4-(1-carbamimidoyl-1,2,3,6-tetrahydropyridin-4-yl)-2-fluorophenyl]-4-(1,3-dihydroxypropan-2-yl}-4H-1,2,4-triazol-3-yl)-3-fluorophenyl)-1,2,3,6-tetrahydropyridine-1-carboximidamide hydrochloride] |  |  |  |  |  |  | 3.13 | 1.56 | 1.56 | 0.39 | 25 | 25
CC(C)(O)Cn1c(-c2ccc(C3=CCN(C(=N)N)CC3)cc2F)nnc1-c1ccc(C2=CCN(C(=N)N)CC2)cc1F [Example 74, 4-(4-{5-[4-(1-carbamimidoyl-1,2,3,6-tetrahydropyridin-4-yl)-2-fluorophenyl]-4-(2-hydroxy-2-methylpropyl)-4H-1,2,4-triazol-3-yl}-3-fluorophenyl)-1,2,3,6-tetrahydropyridine-1-carboximidamide hydrochloride] |  |  |  |  |  |  | 0.78 | 0.39 | 0.1 | 0.1 | 1.56 | 3.13
COc1cc(C2=CCN(C(=N)N)CC2)ccc1-c1nnc(-c2ccc(C3=CCN(C(=N)N)CC3)cc2OC)n1CCO [Example 75, 4-(4-{5-[4-(1-carbamimidoyl-1,2,3,6-tetrahydropyridin-4-yl)-2-methoxyphenyl]-4-(2-hydroxyethyl)-4H-1,2,4-triazol-3-yl}-3-methoxyphenyl)-1,2,3,6-tetrahydropyridine-1-carboximidamide trifluoroacetate] |  |  |  |  |  |  | 3.13 | 1.56 | 1.56 | 0.39 | 25 | 25
COc1cc(-c2nnc(-c3ccc(C4=CCN(C(=N)N)CC4)c(OC)c3)n2CCO)ccc1C1=CCN(C(=N)N)CC1 [Example 76, 4-(4-{5-[4-(1-carbamimidoyl-1,2,3,6-tetrahydropyridin-4-yl)-3-methoxyphenyl]-4-(2-hydroxyethyl)-4H-1,2,4-triazol-3-yl}-2-methoxyphenyl)-1,2,3,6-tetrahydropyridine-1-carboximidamide trifluoroacetate] |  |  |  |  |  |  | 3.13 | 0.78 | 0.78 | 0.39 | 25 | 25
N=C(N)N1CC=C(c2ccc(-c3nnc(-c4ccc(C5=CCN(C(=N)N)CC5)cc4F)n3CCOCCO)c(F)c2)CC1 [Example 77, 4-(4-{5-[4-(1-carbamimidoyl-1,2,3,6-tetrahydropyridin-4-yl)-2-fluorophenyl]-4-[2-(2-hydroxyethoxy)ethyl]-4H-1,2,4-triazol-3-yl}-3-fluorophenyl)-1,2,3,6-tetrahydropyridine-1-carboximidamide trifluoroacetate] |  |  |  |  |  |  | 0.78 | 0.2 | 0.2 | 0.2 | 6.25 | 25
N=C(N)N1CC=C(c2ccc(-c3nnc(-c4ccc(C5=CCN(C(=N)N)CC5)c(C(F)(F)F)c4)n3CCO)cc2C(F)(F)F)CC1 [Example 80, 4-(4-{5-[4-(1-carbamimidoyl-1,2,3,6-tetrahydropyridin-4-yl)-3-(trifluoromethyl)phenyl]-4-(2-hydroxyethyl)-4H-1,2,4-triazol-3-yl}-2-(trifluoromethyl)phenyl)-1,2,3,6-tetrahydropyridine-1-carboximidamide hydrochloride] |  |  |  |  |  |  | 25 | 25 | 25 | 25 | 25 | 25

Reference: US20240018121A1, “NOVEL HETEROAROMATIC COMPOUNDS EXHIBITING ANTIFUNGAL ACTIVITY AND THEIR METHOD OF USE” (FOX CHASE CHEMCIAL DIVERSITY CENTER, INC., priority 2020, published 2024)
